Source: BindingDB's records for doi:10.1021/jm00100a033 (Roche Research Center, 1992)
*1 amine or outer side, *2 acyl side, *3 side chain or, on linkers, in order; H or OH if unused. Where a SMILES comes first, the peptide text is derived from it. Side-chain parts run from the residue outwards. [ ]: non-standard residue; d: D form. The star is where a group is joined. ξ: configuration not given here. Thz(5,5-Me2) = CC1(C)SCN[C@@H]1C(=O)O; NH(2-Me-phenyl) = Cc1ccccc1N*; ξF = NC(Cc1ccccc1)C(=O)O; Boc = CC(C)(C)OC(=O)*; CO = O=C([*:1])[*:2]

Target: Gastrin/cholecystokinin type B receptor (Bos taurus)
Test: Inhibitory activity against cholecystokinin type B receptor from bovine striatal binding assay

IC50: 7.4 µM
Compound: Cc1ccccc1NC(=O)NCCCC[C@H](NC(=O)[C@H](Cc1c[nH]c2ccccc12)NC(=O)OC(C)(C)C)C(=O)N1CSC(C)(C)[C@H]1C(=O)NC(Cc1ccccc1)C(N)=O (stereo partly specified) [[1-[1-[4-(1-Carbamoyl-2-phenyl-ethylcarbamoyl)-5,5-dimethyl-thiazolidine-3-carbonyl]-5-(3-o-tolyl-ureido)-pentylcarbamoyl]-2-(1H-indol-3-yl)-ethyl]-carbamic acid tert-butyl ester] (Boc-WK([CO-NH(2-Me-phenyl)])[Thz(5,5-Me2)][ξF]-NH2)
